Columns and labels:
H3K9me2 in HCT116 cells = assay: HCT116 H3K9me2 in-cell western assay; type: cell-based; conditions: Homo sapiens, HCT-116, 72 h, HCT116 cells, 72 hours incubation; read-out: H3K9me2 ICW IC50
Text: HCT116 cell line was purchased from ATCC (Manassas, VA, USA). […] Penicillin-Streptomycin and heat inactivated fetal bovine serum were purchased from Hyclone (Logan, UT, USA). DPBS, Corning^R were purchased from VWR (Radnor, PA, USA). Triton′ X-100 was purchased from Sigma (St. Louis, MO, USA). Intercept blocking buffer, DRAQ5, Licor Odyssey Infrared Scanner were purchased from Licor Biosciences (Lincoln, NB, USA). Plate washer was purchased from BioTek (Winooski, VT, USA). […] 16% Paraformaldehyde was purchased from Electron Microscopy Sciences (Hatfield, PA, USA). HCT116 cells were maintained in complete growth medium (RPMI supplemented with 10% heat inactivated fetal bovine serum, 1% Penicillin-Streptomycin) and cultured at 37° C. under 5% CO2. N^2-(4-methoxy-3-(3-(pyrrolidin-1-yl)propoxy)phenyl)-N^4,6-dimethyl]pyrimidine-2,4-diamine (synthesis disclosed in International Application WO2017181177A1) was used as a control compound.
HCT116 cells (ATCC) were trypsinized, counted and seeded in assay medium (RPMI supplemented with 10% heat inactivated fetal bovine serum, 1% Penicillin-Streptomycin) at a concentration of 2,000 cells per well to a 384-well cell culture plate with compounds in 50 μl per well. Plates were incubated with at 37° C. under 5% CO2 for 72 hours. After the incubation, 50 μl per well of 8% paraformaldehyde in PBS was added to the plates and incubated at room temperature for 20 minutes. Plates were transferred to a BioTek (EL406) plate washer and washed 5 times with 110 μl per well of wash buffer (1×PBS containing 0.1% Triton X-100). The plates were next blocked with 50 μl of Intercept blocking buffer for 1 hour at room temperature. Blocking buffer was removed and 30 μl per well of monoclonal primary antibody of H3K9me2 (CST) diluted 1:200 in Intercept blocking buffer were added and plates were incubated overnight at 4° C. The plates were then washed 5 times with 110 μl per well of wash buffer (1×PBS containing 0.1% Triton X-100). Next 30 μl per well of secondary was added (1:400 800 CW goat anti-rabbit IgG in blocking buffer) with 1:1000 DRAQ5 in blocking buffer and incubated for 2 hours at room temperature. The plates were washed 5 times with 110 μl per well of wash buffer (1×PBS containing 0.1% Triton X-100) then with 100 μl per well of water once. Plates were allowed to dry at room temperature then imaged on a Licor Odyssey Infrared Scanner which measured integrated intensity at 700 nm and 800 nm wavelength. Both 700 and 800 channels were scanned.
The average of the ratio values (800 nm/700 nm) for each well was calculated and used to determine the percentage for each test well in the plate. Compounds were serially diluted two-fold in 0.1% DMSO for a total of 10 test concentrations beginning at 10 μM. IC50 curves were generated using duplicate wells per concentration of compound. […] IC50 values were calculated using a non-linear regression of Prism.

human EHMT2 913-1193 = molecular target: T1, human EHMT2 913-1193 (Homo sapiens, UniProt Q96KQ7); assay: EHMT2 enzyme assay on histone peptide substrate (3H-SAM SPA); conditions: EHMT2 IC50, recombinant human EHMT2 913-1193, histone peptide substrate
T1 sequence (Q96KQ7 913-1193): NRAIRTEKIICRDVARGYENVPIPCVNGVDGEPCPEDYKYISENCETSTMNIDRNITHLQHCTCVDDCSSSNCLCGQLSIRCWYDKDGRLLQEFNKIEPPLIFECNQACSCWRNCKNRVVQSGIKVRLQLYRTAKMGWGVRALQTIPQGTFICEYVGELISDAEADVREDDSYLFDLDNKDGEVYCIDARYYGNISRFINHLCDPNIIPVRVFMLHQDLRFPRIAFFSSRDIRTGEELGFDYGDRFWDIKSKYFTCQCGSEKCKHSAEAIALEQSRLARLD

human EHMT1 982-1266 = molecular target: T2, human EHMT1 982-1266 (Homo sapiens, UniProt Q9H9B1); assay: EHMT1 enzyme assay on histone peptide substrate (3H-SAM SPA); conditions: EHMT1 IC50, recombinant human EHMT1 982-1266, histone peptide substrate
T2 sequence (Q9H9B1 982-1266): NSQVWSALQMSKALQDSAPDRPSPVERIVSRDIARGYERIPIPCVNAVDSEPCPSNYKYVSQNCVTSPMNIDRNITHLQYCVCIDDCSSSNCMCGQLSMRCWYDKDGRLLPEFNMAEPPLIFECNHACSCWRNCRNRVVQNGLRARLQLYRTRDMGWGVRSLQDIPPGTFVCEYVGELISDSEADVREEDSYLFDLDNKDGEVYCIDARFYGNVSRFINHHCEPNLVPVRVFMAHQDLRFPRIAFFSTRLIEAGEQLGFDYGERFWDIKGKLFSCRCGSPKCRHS

Compound | IC50 (H3K9me2 in HCT116 cells) | IC50 (human EHMT2 913-1193) | IC50 (human EHMT1 982-1266)
CNc1cc(C)nc(Nc2cc3c(c(C4=CCNCC(O)C4)c2F)OCO3)n1 (single isomer, unassigned) [Compound 428] | < 100 nM | < 100 nM | < 100 nM
CNc1cc(C)nc(Nc2cc3c(c(C4=CCNC[C@H](O)C4)c2F)OC[C@H]3C)n1 (stereo in doubt) [Compound 398, rel-(3R)-5-[rel-(3S)-6-fluoro-3-methyl-5-[[4-methyl-6-(methylamino)pyrimidin-2-yl]amino]-2,3-dihydrobenzofuran-7-yl]-2,3,4,7-tetrahydro-1H-azepin-3-ol] | < 100 nM | 100 to 500 nM | < 100 nM
CNc1cc(C)nc(Nc2cc3c(c(C4=CCNC[C@H](O)C4)c2F)OC[C@@H]3C)n1 (stereo in doubt) [Compound 401, rel-(3R)-5-[rel-(3R)-6-fluoro-3-methyl-5-[[4-methyl-6-(methylamino)pyrimidin-2-yl]amino]-2,3-dihydrobenzofuran-7-yl]-2,3,4,7-tetrahydro-1H-azepin-3-ol] | < 100 nM | 100 to 500 nM | < 100 nM
CNc1cc(C)nc(Nc2cc3c(c(C4=CCNC[C@@H](O)C4)c2F)OC[C@H]3C)n1 (stereo in doubt) [Compound 420, rel-(3S)-5-[rel-(3S)-6-fluoro-3-methyl-5-[[4-methyl-6-(methylamino)pyrimidin-2-yl]amino]-2,3-dihydrobenzofuran-7-yl]-2,3,4,7-tetrahydro-1H-azepin-3-ol] | < 100 nM | < 100 nM | < 100 nM
CNc1cc(C)nc(Nc2cc3c(c(C4=CCNC[C@@H](O)C4)c2F)OC[C@@H]3C)n1 (stereo in doubt) [Compound 422, rel-(3S)-5-[rel-(3R)-6-fluoro-3-methyl-5-[[4-methyl-6-(methylamino)pyrimidin-2-yl]amino]-2,3-dihydrobenzofuran-7-yl]-2,3,4,7-tetrahydro-1H-azepin-3-ol] | < 100 nM | < 100 nM | < 100 nM
CNc1cc(C)nc(Nc2cc(OCCCN3CCCC3)c3occc3c2)n1 [Compound 102, N4,6-dimethyl-N2-[7-(3-pyrrolidin-1-ylpropoxy)benzofuran-5-yl]pyrimidine-2,4-diamine] | 500 to 2000 nM | 500 to 2000 nM | 100 to 500 nM
CNc1cc(C2CCCCC2)nc(Nc2cc3c(c(OCCCN4CCCC4)c2)OCC3)n1 [Compound 104, 6-cyclohexyl-N4-methyl-N2-[7-(3-pyrrolidin-1-ylpropoxy)-2,3-dihydrobenzofuran-5-yl]pyrimidine-2,4-diamine] | > 2000 nM | > 2000 nM | > 2000 nM
Cc1cc(N(C)C)nc(Nc2cc3c(c(C4=CCN(C)CCC4)c2)OCC3)n1 [Compound 139] | 500 to 2000 nM |  | 

The next lines start with the values.

IC50 (H3K9me2 in HCT116 cells) | IC50 (human EHMT2 913-1193) | IC50 (human EHMT1 982-1266) | Compound
< 100 nM |  |  | CNc1cc(C)nc(Nc2cc3c(c(C4=CCNCCC4)c2F)OCC[C@@H]3C)n1 (single isomer, unassigned) [Compound 415]
< 100 nM | 100 to 500 nM | < 100 nM | CNc1cc(C)nc(Nc2cc3c(c(C4=CCC(N)CC4)c2F)OCC3)n1 (single isomer, unassigned) [Compound 435]
100 to 500 nM |  |  | Cc1cc(N(C)C)nc(Nc2cc3c(c(C4=CCNCCC4)c2)OCC3)n1 [Compound 138]
< 100 nM |  |  | CNc1cc(C)nc(Nc2cc3c(c(C4=CCNC(C)CC4)c2F)OCC3)n1 (stereo not drawn) [Compound 202]
< 100 nM |  |  | [2H]Cc1cc(NC([2H])([2H])[2H])nc(Nc2cc3c(c(C4=CCNCCC4)c2F)OCC3)n1 [Compound 249]
< 100 nM |  |  | [2H]C([2H])([2H])Nc1cc(C)nc(Nc2cc3c(c(C4=CCNCCC4)c2F)OCC3)n1 [Compound 253]
